Data as given in US20040002526A1, “Phospholipase D inhibitors and uses thereof” (Cell Therapeutics, Inc., priority 2002, published 2004).
pIC50: −log10 of the molar value.

These molecules were tested against T1, PLD (phospholipase D) (assay: In vitro assay of PLD activity ([3H]-choline release from labelled PC)). Conditions: Table 1, monocyclic thiazolidinones of Formula I; PLD isoform not stated.
T1 construct: fused on or other part: N-terminal polyhistidine tag (pFastBac HTc) on either enzyme
Assay type: biochemical, human
Protocol: Recombinant PLD1 and PLD2—Human PLD1 and PLD2 were isolated from Sf9 insect cells that had been infected with recombinant baculovirus vector, pFastBac™HTc vector (Life Technologies, Gaithersburg, Md.), containing PLD1 or PLD2 cDNAs.
PLD1 activity was assayed by measuring the generation of [^3H]-choline from [choline-methyl^3H](16:0, 16:0)PC.
The assay procedure for PLD2 was similar to that for PLD1, with the exception that arf1, PKC-α, and GTPγS were omitted from the reaction mixture. After addition of enzymes, the reactions were incubated for 1 hour at room temperature. Twenty microliters of 12% trichloroacetic acid (TCA) then were added to each sample, to stop the reaction and to precipitate the unreacted [choline-methyl^3H](16:0, 16:0)PC. Thereafter, the samples were passed through 0.65 μm Millipore 96 well filter plates to removed the excess [choline-methyl^3H](16:0, 16:0)PC. For each sample the filtrate (50 μl), which contained the [^3H]-choline released by PLD cleavage of PC, was analyzed using a TopCount™ Liquid Scintillation Counter, a product of Packard (Meriden, Conn.).

In the case of `COC(=O)c1ccc(-c2ccc(/C=C3\SC(=O)NC3=O)o2)cc1` [Compound 31, 4-[5-(2,4-dioxo-thiazolidin-5-ylidenemethyl)-furan-2-yl]-benzoic acid methyl ester], the IC50 was “less active”.
In the case of `COC(=O)c1ccc(-c2ccc(/C=C3\SC(=O)N(CC4CC4)C3=O)o2)cc1` [Compound 33, 4-[5-(3-cyclopropylmethyl-2,4-dioxo-thiazolidin-5-ylidenemethyl)-furan-2-yl]-benzoic acid methyl ester], the IC50 was “less active”.
With `COC(=O)c1ccc(-c2ccc(/C=C3\SC(=S)N(Cc4cc(OC)c(OC)c(OC)c4)C3=O)s2)cc1` [Compound 36, 4-{5-[4-oxo-2-thioxo-3-(3,4,5-trimethoxy-benzyl)-thiazolidin-5-ylidenemethyl]-thiophen-2-yl}-benzoic acid methyl ester] the IC50 was “less active”.

Same assay, conditions: Table 1, monocyclic thiazolidinones of Formula I; PLD isoform not stated; read-out: IC50

First: COC(=O)c1ccc(-c2ccc(/C=C3\SC(=S)N(Cc4ccccc4)C3=O)o2)cc1 [Compound 30, 4-[5-(3-benzyl-4-oxo-2-thioxo-thiazolidin-5-ylidenemethyl)-furan-2-yl]-benzoic acid methyl ester]
Second: Cc1ccc(CN2C(=O)/C(=C/c3ccc(-c4ccc(C(=O)O)cc4)o3)SC2=S)cc1 [Compound 35, 4-{5-[3-(4-methyl-benzyl)-4-oxo-2-thioxo-thiazolidin-5-ylidenemethyl]-furan-2-yl}-benzoic acid]
The pIC50 of the first is 0.90 log units lower: 4.80 for the first, 5.70 for the second. The second is the more potent here.

First: O=C(O)c1ccc(-c2ccc(/C=C3\SC(=S)N(Cc4ccccc4C(F)(F)F)C3=O)o2)cc1 [Compound 34, 4-{5-[4-oxo-2-thioxo-3-(2-trifluoromethyl-benzyl)-thiazolidin-5-ylidenemethyl]-furan-2-yl}-benzoic acid]
Second: O=C(O)c1ccc(-c2ccc(/C=C3\SC(=S)N(Cc4cccs4)C3=O)s2)cc1 [Compound 37, 4-[5-(4-oxo-3-thiophen-2-ylmethyl-2-thioxo-thiazolidin-5-ylidenemethyl)-thiophen-2-yl]-benzoic acid]
The pIC50 of the first is 0.52 log units higher: 5.82 for the first, 5.30 for the second.

`Cc1ccc(CN2C(=O)/C(=C/c3ccc(-c4ccc(S(N)(=O)=O)cc4)o3)SC2=S)cc1` [Compound 38, 4-{5-[3-(4-methyl-benzyl)-4-oxo-2-thioxo-thiazolidin-5-ylidenemethyl]-furan-2-yl}-benzenesulfonamide] and `N#Cc1ccc(-c2ccc(/C=C3\SC(=S)N(Cc4cccnc4)C3=O)o2)cc1` [Compound 39, 4-[5-(4-oxo-3-pyridin-3-ylmethyl-2-thioxo-thiazolidin-5-ylidenemethyl)-furan-2-yl]-benzonitrile] are within 0.2 log units of each other in pIC50: 5.22 for the first, 5.40 for the second.

First: CN(C)c1ccc(/C=C/C=C2\SC(=S)N(c3ccc(C(=O)O)cc3)C2=O)cc1 [Compound 40, 4-{5-[3-(4-dimethylamino-phenyl)-allylidene]-4-oxo-2-thioxo-thiazolidin-3-yl}-benzoic acid]
Second: O=C(O)c1ccc(N2C(=O)/C(=C/c3cc4ccccc4o3)SC2=S)cc1 [Compound 41, 4-(5-benzofuran-2-ylmethylene-4-oxo-2-thioxo-thiazolidin-3-yl)-benzoic acid]
The pIC50 of the first is 0.60 log units lower: 5.10 for the first, 5.70 for the second.

Same assay, conditions: Table 2, bicyclic thiazolidinones of Formula II; PLD isoform not stated; read-out: IC50

`CCOC(=O)C1=C(C)N=c2s/c(=C\c3ccc(-c4ccc(C(=O)O)cc4)o3)c(=O)n2C1c1ccc(OC)c(OC)c1` (stereo not drawn) [Compound 42, 2-[5-(4-Carboxy-phenyl)-furan-2-ylmethylene]-5-(3,4-dimethoxy-phenyl)-7-methyl-3-oxo-2,3-dihydro-5H-thiazolo[3,2-a]pyrimidine-6-carboxylic acid ethyl ester] and `CCOC(=O)C1=C(C)N=c2s/c(=C\c3ccc(-c4ccc(C(=O)O)cc4)o3)c(=O)n2C1c1ccc(C)cc1` (stereo not drawn) [Compound 48] are within 0.2 log units of each other in pIC50: 5.35 for the first, 5.46 for the second.

First: CCOC(=O)C1=C(C)N=c2s/c(=C\c3ccc(-c4ccc(C(=O)O)cc4)o3)c(=O)n2C1c1ccc(N(C)C)cc1 (stereo not drawn) [Compound 43, 2-[5-(4-Carboxy-phenyl)-furan-2-ylmethylene]-5-(4-dimethylamino-phenyl)-7-methyl-3-oxo-2,3-dihydro-5H-thiazolo[3,2-a]pyrimidine-6-carboxylic acid ethyl ester]
Second: CCOC(=O)C1=C(C)N=c2s/c(=C\c3ccc(-c4cccc(C(=O)O)c4)o3)c(=O)n2C1c1ccc(N(C)C)cc1 (stereo not drawn) [Compound 55, 2-[5-(3-Carboxy-phenyl)-furan-2-ylmethylene]-5-(4-dimethylamino-phenyl)-7-methyl-3-oxo-2,3-dihydro-5H-thiazolo[3,2-a]pyrimidine-6-carboxylic acid ethyl ester]
The pIC50 of the first is 0.58 log units lower: 5.57 for the first, 6.15 for the second.

`CCOC(=O)C1=C(C)N=c2s/c(=C\c3ccc(-c4ccc(C(=O)O)cc4)o3)c(=O)n2C1c1ccc2c(c1)OCO2` (stereo not drawn) [Compound 44, 5-Benzo[1,3]dioxol-5-yl-2-[5-(4-carboxy-phenyl)-furan-2-ylmethylene]-7-methyl-3-oxo-2,3-dihydro-5H-thiazolo[3,2-a]pyrimidine-6-carboxylic acid ethyl ester] and `CCOC(=O)C1=C(C)N=c2s/c(=C\c3ccc(-c4cccc(C(=O)O)c4)o3)c(=O)n2C1c1ccc2c(c1)OCO2` (stereo not drawn) [Compound 51, 5-Benzo[1,3]dioxol-5-yl-2-[5-(3-carboxy-phenyl)-furan-2-ylmethylene]-7-methyl-3-oxo-2,3-dihydro-5H-thiazolo[3,2-a]pyrimidine-6-carboxylic acid ethyl ester] are within 0.2 log units of each other in pIC50: 5.64 for the first, 5.57 for the second.

`CCOC(=O)C1=C(C)N=c2s/c(=C\c3ccc(-c4ccc(Cl)c(C(=O)O)c4)o3)c(=O)n2C1c1ccc(N(C)C)cc1` (stereo not drawn) [Compound 45, 2-[5-(3-Carboxy-4-chloro-phenyl)-furan-2-ylmethylene]-5-(4-dimethylamino-phenyl)-7-methyl-3-oxo-2,3-dihydro-5H-thiazolo[3,2-a]pyrimidine-6-carboxylic acid ethyl ester] and `CCOC(=O)C1=C(C)N=c2s/c(=C\c3ccc(-c4cccc(C(=O)O)c4)o3)c(=O)n2C1c1ccc(C)cc1` (stereo not drawn) [Compound 49, 2-[5-(3-Carboxy-phenyl)-furan-2-ylmethylene]-7-methyl-3-oxo-5-p-tolyl-2,3-dihydro-5H-thiazolo[3,2-a]pyrimidine-6-carboxylic acid ethyl ester] are within 0.2 log units of each other in pIC50: 5.72 for the first, 5.55 for the second.

`CCOC(=O)C1=C(C)N=c2s/c(=C\c3ccc(-c4cccc(C(=O)O)c4)o3)c(=O)n2C1c1ccccc1` (stereo not drawn) [Compound 46, 2-[5-(3-Carboxy-phenyl)-furan-2-ylmethylene]-7-methyl-3-oxo-5-phenyl-2,3-dihydro-5H-thiazolo[3,2-a]pyrimidine-6-carboxylic acid ethyl ester] and `CCOC(=O)C1=C(C)N=c2s/c(=C\c3ccc(-c4cccc(C(=O)O)c4)o3)c(=O)n2C1c1ccccc1Cl` (stereo not drawn) [Compound 52, 2-[5-(3-Carboxy-phenyl)-furan-2-ylmethylene]-5-(2-chloro-phenyl)-7-methyl-3-oxo-2,3-dihydro-5H-thiazolo[3,2-a]pyrimidine-6-carboxylic acid ethyl ester] are within 0.2 log units of each other in pIC50: 5.37 for the first, 5.40 for the second.

Compared with `CCOC(=O)C1=C(C)N=c2s/c(=C\c3ccc(-c4cccc(C(=O)O)c4)o3)c(=O)n2C1c1ccc(OC)cc1` (stereo not drawn) [Compound 47, 2-[5-(3-Carboxy-phenyl)-furan-2-ylmethylene]-5-(4-methoxy-phenyl)-7-methyl-3-oxo-2,3-dihydro-5H-thiazolo[3,2-a]pyrimidine-6-carboxylic acid ethyl ester], `CCOC(=O)C1=C(C)N=c2s/c(=C/c3ccc(-c4cccc(C(=O)O)c4)o3)c(=O)n2C1c1ccccc1OC` (stereo not drawn) [Compound 59, 2-[5-(3-Carboxy-phenyl)-furan-2-ylmethylene]-5-(2-methoxy-phenyl)-7-methyl-3-oxo-2,3-dihydro-5H-thiazolo[3,2-a]pyrimidine-6-carboxylic acid ethyl ester] is 0.31 log units lower in pIC50: 5.70 for the first, 5.39 for the second. The first is the more potent here.

`CCOC(=O)C1=C(C)N=c2s/c(=C\c3ccc(-c4ccc(C(=O)O)cc4)o3)c(=O)n2C1c1ccc(Cl)cc1` (stereo not drawn) [Compound 50, 2-[5-(4-Carboxy-phenyl)-furan-2-ylmethylene]-5-(4-chloro-phenyl)-7-methyl-3-oxo-2,3-dihydro-5H-thiazolo[3,2-a]pyrimidine-6-carboxylic acid ethyl ester] and `CCOC(=O)C1=C(C)N=c2s/c(=C\c3ccc(-c4ccc(C(=O)O)cc4)o3)c(=O)n2C1c1c(OC)ccc2ccccc12` (stereo not drawn) [Compound 57, 2-[5-(4-Carboxy-phenyl)-furan-2-ylmethylene]-5-(2-methoxy-naphthalen-1-yl)-7-methyl-3-oxo-2,3-dihydro-5H-thiazolo[3,2-a]pyrimidine-6-carboxylic acid ethyl ester] are within 0.2 log units of each other in pIC50: 5.47 for the first, 5.43 for the second.

`CCOC(=O)C1=C(C)N=c2s/c(=C/c3ccc(-c4ccc(Cl)c(C(=O)O)c4)o3)c(=O)n2C1c1ccccc1OC` (stereo not drawn) [Compound 56, 2-[5-(3-Carboxy-4-chloro-phenyl)-furan-2-ylmethylene]-5-(2-methoxy-phenyl)-7-methyl-3-oxo-2,3-dihydro-5H-thiazolo[3,2-a]pyrimidine-6-carboxylic acid ethyl ester] and `CCOC(=O)C1=C(C)N=c2s/c(=C\c3ccc(-c4ccccc4C(=O)O)o3)c(=O)n2C1c1ccc(SC)cc1` (stereo not drawn) [Compound 58, 2-[5-(2-Carboxy-phenyl)-furan-2-ylmethylene]-7-methyl-5-(4-methylsulfanyl-phenyl)-3-oxo-2,3-dihydro-5H-thiazolo[3,2-a]pyrimidine-6-carboxylic acid ethyl ester] are within 0.2 log units of each other in pIC50: 5.59 for the first, 5.40 for the second.
